Laboratory results as given in PMC12245108 (Advanced Science, 2025).
Where a SMILES comes first, the peptide text is derived from it. The star is where a group is joined. NHCH2CN = N#CCN*

Tests used:
[1] = target: MPXV I7L protease (Monkeypox virus, UniProt Q8V512); assay: biochemical; details: for inhibition at 100 µM: pH 7.5, read-out: inhibition rate
[2] = tested on: Vaccinia virus; assay: microbe, parasite or virus in culture; format: cell-based; details: Orthopoxvirus vaccinia, HeLa, 24 h, read-out: EC50 for vaccinia virus replication inhibition
[3] = tested on: HeLa cells
[4] = in vitro; details: human

Compound	inhibition at 100 µM [1]	IC50 [1]	also measured
CC(C)(C)NC(=O)N[C@H](C(=O)N1C[C@H]2[C@@H]([C@H]1C(=O)NC(CC1CCC1)C(=O)C(N)=O)C2(C)C)C(C)(C)C (stereo partly shown) [Boceprevir, reference compound]	< 50%		
CCCCCCCCCCCCCCCCOCCCOP(=O)(O)CO[C@H](CO)Cn1ccc(N)nc1=O [Brincidofovir, reference compound]			EC50 [2]: 0.9 µM
Cn1cnc(Cn2c(=O)[nH]/c(=N\c3cc4cn(C)nc4cc3Cl)n(Cc3cc(F)c(F)cc3F)c2=O)n1 [Ensitrelvir, reference compound]	< 50%		
CC(C)C[C@H](NC(=O)OCc1ccccc1)C(=O)N[C@@H](C[C@@H]1CCNC1=O)C(O)S(=O)(=O)[O-].[Na+] (stereo partly shown) [GC376, reference compound]			inhibition rate ([1]; pH 7.5): below 50%
Cc1cccc(C)c1OCC(=O)N[C@@H](Cc1ccccc1)[C@@H](O)C[C@H](Cc1ccccc1)NC(=O)[C@H](C(C)C)N1CCCNC1=O [Lopinavir, reference compound]	< 50%		
CCCC[C@H](NC(=O)[C@@H]1[C@@H]2[C@H](CN1C(=O)[C@@H](NC(=O)NC1(CS(=O)(=O)C(C)(C)C)CCCCC1)C(C)(C)C)C2(C)C)C(=O)C(=O)NC1CC1 [Narlaprevir, reference compound]	< 50%		
CC(C)(C)[C@H](NC(=O)C(F)(F)F)C(=O)N1C[C@H]2[C@@H]([C@H]1C(=O)N[C@H](C#N)C[C@@H]1CCNC1=O)C2(C)C [Nirmatrelvir, reference compound]	< 50%		
CC(C)c1nc(CN(C)C(=O)N[C@H](C(=O)N[C@@H](Cc2ccccc2)C[C@H](O)[C@H](Cc2ccccc2)NC(=O)OCc2cncs2)C(C)C)cs1 [Ritonavir, reference compound]	< 50%		
CCC[C@H](NC(=O)[C@@H]1[C@H]2CCC[C@H]2CN1C(=O)[C@@H](NC(=O)[C@@H](NC(=O)c1cnccn1)C1CCCCC1)C(C)(C)C)C(=O)C(=O)NC1CC1 [Telaprevir, reference compound]	< 50%		
CC[C@H](C)[C@H](NC(C)=O)C(=O)N[C@@H](Cc1ccccc1)C(=O)N[C@@H](Cc1ccccc1)C(=O)N[C@@H](C)C(=O)NCC#N [compound 1, (2S,3S)-2-acetamido-N-((S)-1-(((S)-1-(((S)-1-((cyanomethyl)amino)-1-oxopropan-2-yl)amino)-1-oxo-3-phenylpropan-2-yl)amino)-1-oxo-3-phenylpropan-2-yl)-3-methylpentanamide] (Ac-IFFA-NHCH2CN)		0.171 µM	
CC[C@H](C)[C@H](NC(=O)[C@@H](NC(=O)[C@H](CCSC)NC(C)=O)C(C)C)C(=O)N[C@@H](C)C(=O)NCC#N [compound 2, (2S,3S)-2-((S)-2-((S)-2-acetamido-4-(methylthio)butanamido)-3-methylbutanamido)-N-((S)-1-((cyanomethyl)amino)-1-oxopropan-2-yl)-3-methylpentanamide] (Ac-MVIA-NHCH2CN)		0.132 µM	
CC(=O)N[C@@H](Cc1ccc(O)cc1)C(=O)N[C@@H](Cc1ccccc1)C(=O)N[C@@H](Cc1ccc(O)cc1)C(=O)N[C@@H](C)C(=O)NCC#N [compound 3, (S)-2-acetamido-N-((S)-1-(((S)-1-(((S)-1-((cyanomethyl)amino)-1-oxopropan-2-yl)amino)-3-(4-hydroxyphenyl)-1-oxopropan-2-yl)amino)-1-oxo-3-phenylpropan-2-yl)-3-(4-hydroxyphenyl)propanamide] (Ac-YFYA-NHCH2CN)		0.079 ± 0.015 µM	
CC[C@H](C)[C@H](NC(C)=O)C(=O)N[C@H](C(=O)N[C@@H](CC(N)=O)C(=O)N[C@@H](C)C(=O)NCC#N)[C@@H](C)O [compound 4, (S)-2-((2S,3R)-2-((2S,3S)-2-acetamido-3-methylpentanamido)-3-hydroxybutanamido)-N^1-((S)-1-((cyanomethyl)amino)-1-oxopropan-2-yl)succinamide] (Ac-ITNA-NHCH2CN)		1.61 µM	
CC(=O)N[C@@H](CC(=O)O)C(=O)N[C@@H](Cc1ccccc1)C(=O)N[C@@H](CO)C(=O)N[C@@H](C)C(=O)NCC#N [compound 6, (4S,7S,10S,13S)-13-acetamido-10-benzyl-1-cyano-7-(hydroxymethyl)-4-methyl-3,6,9,12-tetraoxo-2,5,8,11-tetraazapentadecan-15-oic acid] (Ac-DFSA-NHCH2CN)		0.074 ± 0.029 µM	
CC[C@H](C)[C@H](NC(=O)[C@H](Cc1ccc(O)cc1)NC(=O)[C@@H]1CCCN1C(C)=O)C(=O)N[C@@H](C)C(=O)NCC#N [compound 7, (S)-1-acetyl-N-((S)-1-(((2S,3S)-1-(((S)-1-((cyanomethyl)amino)-1-oxopropan-2-yl)amino)-3-methyl-1-oxopentan-2-yl)amino)-3-(4-hydroxyphenyl)-1-oxopropan-2-yl)pyrrolidine-2-carboxamide] (Ac-PYIA-NHCH2CN)		0.241 ± 0.029 µM	
CC[C@H](C)[C@H](NC(C)=O)C(=O)N[C@@H](Cc1ccccc1)C(=O)N[C@@H](CC(N)=O)C(=O)N[C@@H](C)C(=O)NCC#N [compound 8, (S)-2-((S)-2-((2S,3S)-2-acetamido-3-methylpentanamido)-3-phenylpropanamido)-N^1-((S)-1-((cyanomethyl)amino)-1-oxopropan-2-yl)succinamide] (Ac-IFNA-NHCH2CN)		0.071 µM	
CC[C@H](C)[C@H](NC(=O)[C@@H](NC(C)=O)C(C)C)C(=O)N[C@@H](C)C(=O)NCC#N [compound 9, (2S,3S)-2-((S)-2-acetamido-3-methylbutanamido)-N-((S)-1-((cyanomethyl)amino)-1-oxopropan-2-yl)-3-methylpentanamide]		0.4 µM	
CC[C@H](C)[C@H](NC(=O)Cc1ccccc1)C(=O)N[C@@H](C)C(=O)NCC#N [compound 10, (2S,3S)-N-((S)-1-((cyanomethyl)amino)-1-oxopropan-2-yl)-3-methyl-2-(2-phenylacetamido)pentanamide]		0.122 µM	EC50 [2]: 6.3 µM; cytotoxicity [3]: no detectable cytotoxicity; CC50 [4]: > 400 µM
CC[C@H](C)[C@H](NC(=O)[C@@H](C)c1ccccc1)C(=O)N[C@@H](C)C(=O)NCC#N [compound 11, (2S,3S)-N-((S)-1-((cyanomethyl)amino)-1-oxopropan-2-yl)-3-methyl-2-((S)-2-phenylpropanamido)pentanamide]		0.069 µM	EC50 [2]: 6 µM; cytotoxicity [3]: no detectable cytotoxicity; CC50 [4]: > 400 µM
